Where a SMILES comes first, the peptide text is derived from it. Bridges are numbered along the chain shown (N, C = ends). Where no end group is shown, it is not given here. [ ]: non-standard residue; d: D form. The star is where a group is joined. hArg = N=C(N)NCCCC[C@H](N)C(=O)O; Myristoyl = CCCCCCCCCCCCCC(=O)*; Mpa = O=C(O)CCS
Legend:
C57BL/6 mice [1] = experiment: FeCl3-induced mouse carotid artery thrombosis model; assay type: in vivo; settings: for formation of stable occlusive thrombus / occlusion time vs normal control: 7.5% FeCl3, M3mP6 HLPN 5 or 10 μmol/kg retro-orbital 15 min before, aspirin 4.3 mg/kg oral 2 h, clopidogrel 4 mg/kg oral 2 h, MB2mP6 15 min before; for anti-thrombotic effect compared with M3mP6 HLPN (10 μmol/kg), pre-injury dosing: clopidogrel 4 mg/kg, ticagrelor 3 mg/kg, aspirin 4.3 mg/kg oral, cangrelor 30 μg/kg retro-orbital, MB2mP6
Procedure: The right carotid artery was isolated (34, 37). A MA-0.5SB nanoprobe (Transonic Systems, Ithaca, NY) was hooked to the carotid artery to monitor blood flow with a TS420 flowmeter (Transonic Systems) as previously described (38). After stabilization, carotid arterial thrombosis was induced with 7.5% ferric chloride (FeCl3) (Sigma Aldrich, St. Louis, MO), a filter paper disc (2 mm diameter) soaked with 1.2 μL of 7.5% FeCl3 was placed on top of the artery for 3 minutes, and then removed. M3mP6 HLPN, HLPN of scrambled control peptide, HLPN of a second control peptide carrying AAA mutation or physiological saline solution were injected 15 minutes before procedure retro-orbitally. […] To study the effect of post-injury drug injection on thrombosis development, the filter paper disc soaked with 1.2 μl 3.75% FeCl3 were placed on artery for 2 minutes, and drugs were injected retro-orbitally 3 minutes after removing the filter paper. Blood flow was monitored continuously until 5 minutes after occlusion or for 30 minutes if no occlusion occurred. Time to occlusion was defined as the time between the removal of the filter paper and stable occlusion (no blood flow for 2 minutes).
Eight- to 10-week-old C57BL/6 mice (20-25 g body weight) were anesthetized by isoflurane inhalation. The right carotid artery was isolated. A MA-0.5SB nanoprobe (Transonic Systems, Ithaca, NY) was hooked to the carotid artery to monitor blood flow with a TS420 flowmeter (Transonic Systems) as previously described (29). After stabilization, a filter paper disc (2 mm diameter) soaked with 1.2 μL of 7.5% FeCl3 (Sigma Aldrich, St. Louis, MO) was placed on top of the carotid artery for 3 minutes to induce thrombosis and then removed. MB2mP6 or scrambled control peptide were injected 15 minutes before the procedure retro-orbitally. Blood flow was monitored continuously until 5 minutes after occlusion or for 15 minutes if no occlusion occurred. Time to occlusion was defined as the time between the removal of the filter paper and stable occlusion (no blood flow for 5 minutes).

[2] = Peptide loading, peptide concentration and dissolution of the nanoparticle/micelle formulation; assay type: physicochemical; settings: HLPN, or lipid micellar suspension for mP6
Text: The peptide myr-FEEERL(SEQ ID NO: 25) was modified from the original […] cytoplasmic domain sequence to make it more suitable to form peptide-based nanoparticle, and was formulated to form lipid-stabilized high-loading peptide nanoparticles together with PEG2000-DSPE (Avanti Polar Lipids Inc. Alabaster, AL), L-α-phosphatidylcholine (egg PC, Type XI-E, Sigma-Aldrich, St. Louis, MO) with a peptide to PEG-DSPE to PC molar ratio of 36.8:51.7:11.5 or 50:40:10 (further improved formulation with identical in vivo effect) using thin-film rehydration (21, 31). The size distribution of nanoparticles were determined using dynamic light scattering (DLS) (Malvern, Zetasizer Nano ZS90, Worcestershire, U.K.) as previously described (32). This method uses light scattering to monitor the Brownian motion of the particles. Particle size is presented as volume weighted diameter distribution.

human platelets [3] = experiment: Human platelet aggregation (lumiaggregometer); assay type: cell-based; settings: washed human platelets pretreated with peptide
Procedure: (§1) For human subjects, Institutional Review Board approval was obtained from the University of Illinois at Chicago, and informed consent from volunteers was obtained in accordance with the Declaration of Helsinki. Platelets were prepared as previously described (33). Platelet aggregation and adenosine triphosphate (ATP) secretion were measured simultaneously in a lumiaggregometer (Chronolog) at 37° C. with stirring (1000 rpm), as previously described (34).
(§2) To prepare platelet-rich plasma (PRP), whole blood was anticoagulated with 3.8% trisodium citrate. To prepare human platelets, one-seventh volume of ACD was used as anticoagulant. Platelets were washed twice and resuspended in modified Tyrode's buffer as previously described (27). Platelet aggregation and adenosine triphosphate (ATP) secretion were measured simultaneously in a lumiaggregometer (Chronolog) at 37° C. with stirring (1000 rpm) as previously described (28).

human platelets [4] = experiment: Human platelet granule (ATP) secretion (lumiaggregometer); assay type: cell-based; settings: for integrin-dependent second wave of ATP/granule secretion induced by U46619 / integrin-independent first wave of ATP/granule secretion induced by U46619: human platelets (Integrilin: mouse and human platelets); for ATP secretion induced by thrombin: washed human platelets pretreated with peptide
Procedure: as §1, §2

[5] = reference (21); cited from earlier work
C57BL/6 mice [6] = experiment: Laser-induced mouse cremaster arteriolar thrombosis and intravital microscopy; assay type: in vivo; settings: M3mP6 HLPN 10 μmol/kg, cangrelor 30 μg/kg
Procedure: Laser-induced thrombosis and intravital microscopy are performed as previously described using male C57BL/6 mice (6-8 weeks old) anesthetized by intraperitoneal injection of ketamine and xylazine (36). Platelet thrombi were indicated by infusion of DyLight 649-labeled anti-mouse […], Germany). Fibrin deposition was tracked by Alexa Fluor (AF) 488-labeled monoclonal anti-fibrin antibody (clone 59D8) as previously described (25). Suspensions of M3mP6 HLPN (10 μmol/kg) or a control peptide (Myr-ERAFEE (SEQ ID NO: 47)) HLPN in 0.15 M NaCl or cangrelor were injected 15 min or immediately prior to induction of injury. Fluorescence and bright-field images were recorded by an Olympus BX61W microscope with a 603/1.0 NA water immersion objective and a high-speed camera (5 frame/second) through an intensifier at 27-30 injury sites in 7 mice per group. The movies shown are compressed to 100 frame/second.

C57BL/6 mice [7] = experiment: Arterial perforation bleeding analysis (carotid artery perforation model of surgical bleeding); assay type: in vivo, mouse; settings: M3mP6 HLPN 10 μmol/kg; cangrelor loading dose 30 μg/kg
Procedure: The right carotid artery was isolated as previously described (34, 37) and punctured with a 27½G needle in the middle of carotid artery. The perforating wound was immediately covered with a 4×4 mm hemostatic pad (CERTI-GAUZE™, Kansas City, MO), which serve to absorb extravascular blood and also help stop bleeding similarly to that during vascular procedures. The pad was removed after 15 minutes regardless whether bleeding continued or not. The volume of blood absorbed on the pad during the 15-minute period was quantified by estimating the amount of hemoglobin. To do so, adsorbed blood on the pad was dissolved into 30 mL double distilled water. To 1 mL of dissolved blood, 1 mL of the 2× Drabkin's Solution was added. After fully mixing and incubating for 20 minutes at room temperature, the absorbance of the samples was analyzed at 540 nm wave length with a spectrophotometer. Known volumes of blood were similarly analyzed to establish a standard curve for the calculation of blood volume on the pad. Data were analyzed by Mann-Whitney test for statistical significance.

C57BL/6 mice [8] = experiment: Tail bleeding time; settings: cangrelor 30 μg/kg; for tail bleeding, drugs injected after initiation of thrombosis: M3mP6 10 μmol/kg; for tail bleeding time vs normal control: M3mP6 HLPN 10 μmol/kg, aspirin 4.3 mg/kg, clopidogrel 4 mg/kg, ticagrelor 3 mg/kg, MB2mP6
Procedure: M3mP6 was administered via retro-orbital injection 15 minutes prior to procedure.
Tail bleeding time was performed as previously described (21, 39). Eight- to 10-week-old C57BL/6 mice were anesthetized with isoflurane. After cutting 0.5-cm-long segment of the distal tip of the tail, their tails were immersed in 0.15 M NaCl immediately at 37° C. Tail bleeding time was defined as the time between cutting tail and stable cessation of bleeding (no rebleeding within 60s). […] If bleeding persisted at 15 minute time point, bleeding was stopped by application of pressure. Data were analyzed using Mann-Whitney test to compare medians between groups.
Tail bleeding time was performed as previously described (16, 29). Eight- to 10-week-old C57BL/6 mice weighing 20-25 g were anesthetized with isoflurane. After cutting a 0.5-cm-long segment off the distal tip of the tail, their tails were immersed in 0.15 M NaCl immediately at 37° C. Tail bleeding time was defined as the time between cutting the tail and stable cessation of bleeding (no re-bleeding within 60s). […] If bleeding persisted at 15 minutes, bleeding was stopped by application of pressure. Data were analyzed using the Mann-Whitney test to compare medians between groups.

[9] = Acute maximal tolerated dose (MTD) in mice; settings: mouse, in vivo, 60 mg/kg; CD-1 mice, IV tail vein, single injection, observed 8 days; read-out: maximal tolerated dose (MTD) = maximal feasible dose
Procedure: Four more animals were then injected with the same dose. The animals were observed 2 times per day for 8 days for clinical signs of toxicity.

Sprague-Dawley (SD) rats = experiment: Toxicity of bolus and continuous intravenous infusion in rats; assay type: in vivo; settings: IV bolus 100 mg/kg followed by IV infusion 25 mg/kg/hr for 24 hr
Procedure: (§3) Toxicological responses to bolus and continuous intravenous infusion of M3mP6 HLPN were performed using jugular vein catheterized (JVC) Sprague-Dawley (SD) rats (6-8 weeks old and […]), which were quarantined for at least 3 day after arrival. Four SD rats (n=2 per sex) was given an IV bolus dose of M3mP6 (100 mg/kg, dose volume 10 mL/kg) followed by IV infusion dose of M3mP6 for 24 hr (25 mg/kg/hr for a total dose of 600 mg/kg/day). […] A pilot 7-day continuous infusion study in rats was performed similarly with lower drug concentrations. The parameters observed include mortality, clinical signs, body weights, hematology, clinical chemistry and organ weights. For pharmacokinetic studies, plasma samples for drug analysis were obtained from blood samples collected in satellite 6 males and 6 females (3 rat/sex per time-point) in the dose Groups 3 and 4 (Phase 2) at the following time-point on Day 1 after the bolus dose and infusion were started: 5, 10 and 30 minutes, and 1, 2, 6 and 24 hours. Additional blood samples were collected prior to the end of 5-day infusion, immediately after stopping the infusion, and at 30 minutes, and 1, 4, 6, 24 and 48 hours after the end of the infusion.

Pharmacokinetics in mice = assay type: in vivo, mouse; settings: intravenous injection of 5 mg/kg (5 μmol/kg)
Procedure: For pharmacokinetic studies, CD-1 mice were intravenously injected with 5 mg/kg (5 μmol/kg) M3mP6 (potential therapeutic dose). At the following time points: 0 (pre-dose) min, 5 min, 10 min, 30 min, 1, 2, 4, 6, and 24 hours, 3 drug-treated mice were sacrificed, and their blood drawn via vena cava into K2EDTA tubes. Whole blood and plasma were analyzed for M3mP6 concentrations using Agilent 1290 Infinity LC and 6430 triple quadrupole mass spectrometer and MassHunter software.

[10] = Pharmacokinetics in rats (5-day infusion); design: species or system rat; settings: Sprague-Dawley, in vivo
Procedure: as §3

COC(=O)[C@H](c1ccccc1Cl)N1CCc2sccc2C1 [clopidogrel]
formation of stable occlusive thrombus / occlusion time vs normal control (C57BL/6 mice [1]): moderate but significant delay
anti-thrombotic effect compared with M3mP6 HLPN (10 μmol/kg), pre-injury dosing (C57BL/6 mice [1]): significantly less effective

myr-FEEERA (Myristoyl-FEEERA) [mP6]
peptide concentration in injectable/micellar suspension [2]: 1 mM
peptide loading, of total molar content (mol/mol) [2]: < 4%
thrombin-induced platelet aggregation (human platelets [3]): potently inhibited
integrin-dependent second wave of ATP/granule secretion induced by U46619 (human platelets [4]): diminished
integrin-independent first wave of ATP/granule secretion induced by U46619 (human platelets [4]): diminished
ATP secretion induced by thrombin (human platelets [4]): significantly inhibited
maximal concentration of peptide in lipid micellar formulation [5]: < 1 mM
maximal peptide content of lipid micellar formulation (mol/mol) [5]: ≤ 4%

CC(=O)Oc1ccccc1C(=O)O [aspirin]
formation of stable occlusive thrombus / occlusion time vs normal control (C57BL/6 mice [1]): not significantly different
occlusive thrombus formation, high dose aspirin experiment (C57BL/6 mice [1]; aspirin 36 mg/kg i.p. 1 hour prior, M3mP6 HLPN 5 μmol/kg, combination): no significant effect

CSCCNc1nc(SCCC(F)(F)F)nc2c1ncn2[C@@H]1O[C@H](COP(=O)(O)OP(=O)(O)C(Cl)(Cl)P(=O)(O)O)[C@@H](O)[C@H]1O [cangrelor]
anti-thrombotic effect compared with M3mP6 (10 μmol/kg), drugs injected after initiation of thrombosis (C57BL/6 mice [1]; 3.75% FeCl3, cangrelor 30 μg/kg): no statistical difference
anti-thrombotic effect compared with M3mP6 HLPN (10 μmol/kg), pre-injury dosing (C57BL/6 mice [1]): moderately but significantly better
intravascular fibrin clot formation at the site of vascular injury (C57BL/6 mice [6]): moderate effect
platelet thrombus formation (C57BL/6 mice [6]; preinjected): completely inhibiting
bleeding from perforated artery vs control mice (C57BL/6 mice [7]): caused excessive bleeding
tail bleeding, drugs injected after initiation of thrombosis (C57BL/6 mice [8]): caused significant bleeding
tail bleeding time vs normal control (C57BL/6 mice [8]): dramatically increased

N=C(N)NCCCC[C@@H]1NC(=O)CCSSC[C@@H](C(N)=O)NC(=O)[C@@H]2CCCN2C(=O)[C@H](Cc2c[nH]c3ccccc23)NC(=O)[C@H](CC(=O)O)NC(=O)CNC1=O [Integrilin, reference compound] ([Mpa][hArg]GDWPC-NH2; disulfide 1-7)
integrin-dependent second wave of ATP/granule secretion induced by U46619 (human platelets [4]): diminished
integrin-independent first wave of ATP/granule secretion induced by U46619 (human platelets [4]): significantly enhanced
platelet granule secretion, low dose thrombin, integrin antagonist-treated platelets (human platelets [4]; wild type mouse or human platelets): enhanced

CCCSc1nc(N[C@@H]2C[C@H]2c2ccc(F)c(F)c2)c2nnn([C@@H]3C[C@H](OCCO)[C@@H](O)[C@H]3O)c2n1 [ticagrelor]
tail bleeding time vs normal control (C57BL/6 mice [8]): dramatically prolonged

CCCCCCCCCCCCCC(=O)N[C@@H](Cc1ccccc1)C(=O)N[C@@H](CCC(=O)O)C(=O)N[C@@H](CCC(=O)O)C(=O)N[C@@H](CCC(=O)O)C(=O)N[C@@H](CCCNC(=N)N)C(=O)N[C@@H](CC(C)C)C(=O)O [M3mP6, Myr-FEEERL] (Myristoyl-FEEERL-OH; C-terminus assumed)
MTD at 8 days [9]: 60 mg/kg
toxicity during 3-4 days post dose (single dose MTD) (Sprague-Dawley (SD) rats): no toxicity was observed
half-life (Pharmacokinetics in mice; CD-1, mouse, in vivo, read-out: t1/2−λz (converted)): 2.46 h
maximum level in whole blood (Pharmacokinetics in mice): 33.36 ng/mL
half-life ([10]; female, rat, iv): 3.7 h
half-life ([10]; male, rat 5-day infusion study, read-out: t1/2−λz (half-life after cessation of infusion), male (converted)): 3.1 h
tail bleeding, drugs injected after initiation of thrombosis (C57BL/6 mice [8]): but not M3mP6 caused significant bleeding

myr-EEERA (Myristoyl-EEERA) [mP5]
thrombin-induced platelet aggregation (human platelets [3]): partially inhibited
integrin-dependent second wave of ATP/granule secretion induced by U46619 (human platelets [4]): reduced
integrin-independent first wave of ATP/granule secretion induced by U46619 (human platelets [4]): significantly enhanced
ATP secretion induced by thrombin (human platelets [4]): enhanced

— patent publication US12714678B2, “Peptides and methods of treating sepsis, atherosclerosis, thrombosis, stroke, heart attack and inflammation” (THE BOARD OF TRUSTEES OF THE UNIVERSITY OF ILLINOIS, priority 2019, dated 2026)
